Measurements published in patent US6337417B1, “N-phenyltetrahydrophthalamic acid derivatives, methods of producing same, and herbicides containing same as effective components” (Central Glass Co., Ltd., priority 1994, dated 2002).

Key:
Type in all cases: in vivo
Parameters in all cases: key: 5: completely killed; 4: seriously injured; 3: considerably injured; 2: somewhat injured; 1: slightly injured; 0: not injured (normally grown)
[1] = test system: mehishiba (henry crabgrass, Digitaria cliaris); assay: Experiment 8 foliage treatment: mehishiba; conditions: foliage spray of wettable powder suspension, evaluated 4 weeks after treatment
Procedure: (§1) Upon seedling stage (two- or three-leaved stage) of rice, cockspur (Panicum crus-galli), garden radish, aobiyu (slender amaranth, Amaranthus viridis) and mehishiba (henry crabgrass, Digitaria cliaris) which were grown on a cultivated soil put in pots of 1/15500 ares, a selected compound obtained in a manner analogous to Example 14, in suspended wettable powder, was sprayed to each plant. After that, the pots were kept in a glass chamber to allow each plant to grow, and after the lapse of 4 weeks from the treatment with the selected compounds the herbicidal effects were evaluated. The evaluation of the herbicidal effects was similarly conducted as to that of Experiment 1.

[2] = test system: aobiyu (slender amaranth, Amaranthus viridis); assay: Experiment 8 foliage treatment: aobiyu; conditions: foliage spray of wettable powder suspension, evaluated 4 weeks after treatment
Procedure: as §1

garden radish = assay: Experiment 8 foliage treatment: garden radish; conditions: foliage spray of wettable powder suspension, evaluated 4 weeks after treatment
Procedure: as §1

[3] = test system: nobie (barnyardgrass, Echinochloa spp.); assay: Experiment 7 flooded soil treatment: nobie; conditions: evaluated 4 weeks after treatment
Excerpt: (§2) Paddy soil (clay loam) was put into a pot so as to have a surface area of 1/15500 ares. Uniformly mixed seeds of several kinds of weeds, viz., nobie (barnyardgrass, Echinochloa spp.), broad-leaved weeds, hotarui (bulrush, Scirpus juncoides) and tamagayatsuri (small-flowered umbrellaplant, Cyperus difformis), were sown in the surface layer of the soil in each pot, and then paddy rice seedlings at the two- or three-leaved stage were transplanted into each pot to a depth of 2 cm, and water was fed into each pot so as to provide a 3 cm deep water layer on the soil surface. After 3 days, in other words at the initial stage of germination of nobie (barnyardgrass, Echinochloa spp.), a predetermined amount of a selected compound obtained in a manner analogous to Example 14 in the form of diluted aqueous solution was dropped into the water layer in each pot. After that, the pots were kept in a glass chamber to allow the paddy rice and the weeds to grow, and after the lapse of 4 weeks from the treatment with the selected compounds, the herbicidal effects and the degree of injury to the paddy rice were evaluated. The evaluation of the herbicidal effects was similarly conducted as that of Experiment 1.

rice = assay: Experiment 8 foliage treatment: rice; conditions: foliage spray of wettable powder suspension, evaluated 4 weeks after treatment
Procedure: as §1

[4] = test system: tamagayatsuri (small-flowered umbrellaplant, Cyperus difformis); assay: Experiment 7 flooded soil treatment: tamagayatsuri; conditions: evaluated 4 weeks after treatment
Excerpt: as §2

paddy rice = assay: Experiment 7 flooded soil treatment: injury to paddy rice; conditions: evaluated 4 weeks after treatment
Excerpt: as §2

broad-leaved weeds = assay: Experiment 7 flooded soil treatment: broad-leaved weeds; conditions: evaluated 4 weeks after treatment
Excerpt: as §2

[5] = test system: hotarui (bulrush, Scirpus juncoides); assay: Experiment 7 flooded soil treatment: hotarui; conditions: evaluated 4 weeks after treatment
Excerpt: as §2

[6] = test system: cockspur (Panicum crus-galli); assay: Experiment 8 foliage treatment: cockspur; conditions: foliage spray of wettable powder suspension, evaluated 4 weeks after treatment
Procedure: as §1

| SMILES | Herbicidal Effect mehishiba ([1]; 40 g/10a) | Herbicidal Effect mehishiba ([1]; 80 g/10a) | Herbicidal Effect aobiyu ([2]; 40 g/10a) | Herbicidal Effect aobiyu ([2]; 80 g/10a) | Herbicidal Effect garden radish (garden radish; 40 g/10a) | Herbicidal Effect garden radish (garden radish; 80 g/10a) | Herbicidal Effect nobie ([3]; 6.25 g/10a) | Herbicidal Effect nobie ([3]; 12.5 g/10a) | Herbicidal Effect rice (rice; 40 g/10a) | Herbicidal Effect rice (rice; 80 g/10a) | Herbicidal Effect tamagayatsuri ([4]; 6.25 g/10a) | Herbicidal Effect tamagayatsuri ([4]; 12.5 g/10a) | Injury of Paddy (paddy rice; 6.25 g/10a) | Injury of Paddy (paddy rice; 12.5 g/10a) | Herbicidal Effect broad-leaved weed (broad-leaved weeds; 6.25 g/10a) | Herbicidal Effect broad-leaved weed (broad-leaved weeds; 12.5 g/10a) | Herbicidal Effect hotarui ([5]; 6.25 g/10a) | Herbicidal Effect hotarui ([5]; 12.5 g/10a) | Herbicidal Effect cockspur ([6]; 40 g/10a) | Herbicidal Effect cockspur ([6]; 80 g/10a) |
| --- | --- | --- | --- | --- | --- | --- | --- | --- | --- | --- | --- | --- | --- | --- | --- | --- | --- | --- | --- | --- |
| C#CC(C)Oc1cc(N(C(=O)C2=C(C(=O)OCCCC)CCCC2)C(=O)c2cccs2)c(F)cc1Cl (stereo not shown) [compound 93] | 1 | 1 | 5 | 5 | 4 | 5 | 5 | 5 | 1 | 1 | 4 | 4 | 0.5 | 0.5 | 5 | 5 | 4 | 4 | 1 | 1 |
| COC(=O)C1=C(C(=O)N(C(=O)c2cccs2)c2cc(OC3CCCC3)c(Cl)cc2F)CCCC1 [compound 98] | 1 | 1 | 4 | 5 | 4 | 4 | 5 | 5 | 1 | 1 | 5 | 5 | 0.5 | 0.5 | 5 | 5 | 4 | 5 | 1 | 1 |
| C#CC(C)Oc1cc(N(C(=O)C2=C(C(=O)OC)CCCC2)C(=O)c2sccc2C)c(F)cc1Cl (stereo not shown) [compound 95] | 1 | 1 | 5 | 5 | 4 | 4 | 5 | 5 | 1 | 1 | 5 | 5 | 0 | 0 | 5 | 5 | 4 | 4 | 1 | 1 |
| C#CC(C)Oc1cc(N(C(=O)C2=C(C(=O)OCCOC)CCCC2)C(=O)c2cccs2)c(F)cc1Cl (stereo not shown) [compound 94] | 1 | 1 | 5 | 5 | 5 | 5 | 5 | 5 | 1 | 1 | 5 | 5 | 0.5 | 0.5 | 5 | 5 | 5 | 5 | 1 | 1 |
| C#CC(C)Oc1cc(N(C(=O)C2=C(C(=O)OCCC)CCCC2)C(=O)c2ccsc2)c(F)cc1Cl (stereo not shown) [compound 101] | 1 | 1 | 5 | 5 | 5 | 5 | 5 | 5 | 1 | 1 | 5 | 5 | 0.5 | 1 | 5 | 5 | 4 | 4 | 1 | 1 |
